Patent US8906858B2, “Method for the prophylactic or therapeutic treatment of glucocorticoid-induced osteoporosis” (Fritz-Lipmann-Institut E. V. Leibniz-Institut Fuer …, priority 2010, dated 2014)
“Also recorded” adds a separate entry of the source. Like-named read-outs stand apart in the source and are kept apart here.

Assays:
[1] = tested on: Cxcl10 and IL-6 mRNA expression; details: primary osteoblasts, 10^−6 M CpdA, 6 h
Protocol: (§1) FIG. 18. […] B) After 6 h of cultivation, IL-11 mRNA expression levels were measured from total RNA extracts. C) IL-11 protein was measured in the supernatant using ELISA after 36 h of culture (n=3; Beta-actin was used for standardisation). *P<0.05, **P<0.01; 1-way ANOVA followed by Dunnett's multiple comparison test. […] E) Western blot analysis is shown for STAT3 phosphorylation of bones from GR^Runx2Cre mice subjected to organ cultures, treated as in D for 36 h.

IL-11 signaling = details: primary osteoblasts, 10^−6 M CpdA
Protocol: as §1

[2] = tested on: Mouse embryonic fibroblasts; assay: Functional screening assay, automated fluorescent microscopy of ALP activity and cytokines; type: cell-based
Protocol: Automated fluorescent microscopy for high content screening of factors involved in osteoblast differentiation. (A) In osteogenic differentiated (OI) wild type MEFs ALP activity is shown by a fluorescent product (ELF®, green) and nuclei are indicated by DRAQ5® staining (red).
500 Mouse embryonic fibroblasts are seeded per 384 well (2000 cells into a 96 well) until confluency (approx. 2 days). […] 3.7% Formalin is added (50 μl).
Differentiation of osteoblasts treated either with agents to be tested or with RNAi will be determined by staining for alkaline phosphatase activity (ALP kit; Sigma, Inc. or ELF® Phosphatase Detection Kit, ATCC). The preserved anti-inflammatory activity is monitored by immunhistochemical staining with antibodies against IL-6 and CXCL10. The avoidance to affect IL-11 and LIF expression is additionally determined by immunohistochemistry as well.
After fixation, the wells are stained with the nuclear stain DRAQ5 and a fluorescent substrate (ELF) for alkaline phosphatase activity. This allows monitoring cellular ALP activity by automatic microscopy and evaluation with the respective software (FIG. 17).
Immunohistochemical staining towards the antibodies IL-6, CXCL10, IL-11 and/or LIF follows as a last step. Fluorescent signals of the antibodies will be monitored by automatic microscopy and evaluation with the respective software.

DBA/1 mice = details: CpdA (300 ug) daily for 8 d
Protocol: (§2) FIG. 19. […] A) Cells were fixed and stained for ALP activity after 10 d and for mineralization of the matrix using Alizarin red after 20 d of culture. B) mRNA expression levels of osteoblast marker genes are shown, indicated as arbitrary units of actin expression.
(§3) FIG. 22. Determination of alkaline phosphatase activity (ALP) and corresponding IL-11 levels with ELISA 48 hrs after induction. A) Primary osteoblasts of wild type mice were cultured for 10 days with osteogenic inducers (OI) or 0.5 ng/ml IL-11 compared to untreated cells (ctr). Cells were fixed and stained for alkaline phosphatase activity (ALP). The corresponding IL-11 levels were determined with ELISA 48 hrs after induction.

primary osteoblasts = details: 10^−6 M CpdA, OI differentiation
Protocol: as §2, §3

MMP-13 = details: monocytic cells
[3] = tested on: primary wild type osteoblasts; assay: Soluble factors added to osteoblasts during osteogenic induction in presence or absence of Dex; type: cell-based, mouse; details: day 10, with Dex
Protocol: FIG. 7. Differential gene regulation in GR^dim osteoblasts and bone organs by GCs and involvement of AP-1 in suppression of IL-11 in osteoblast differentiation. (A-E) Primary osteoblasts were grown until confluence and treated as described in FIG. 4A. qRT-PCR-determined mRNA expression levels of GILZ, Per-1, KLF15, Lif (LIF) and II11 (IL-11) after six hours. (F-H) qRT-PCR-determined mRNA expression level of IL-11 in organ cultures of GR mutant fetal hind legs (F), in dN^Runx2Cre osteoblasts (G) and c-jun^null MEFs (H) after six hours treatment. (I) Chromatin immunoprecipitation of MEFs after six hours. […] IgG precipitation served as negative control and amplification of the input as positive control. […] At day 10, ALP activity was determined and at day 20, Alizarin Red staining was performed. (K) Quantification of ALP-positive cells treated as in (J) after 10 days. (L) qRT-PCR-determined Runx2 mRNA expression level in cells treated as in (J) after 10 days.
FIG. 13. Effects of GR regulated soluble factors on osteoblast cell numbers. […] At day 10 cell counts were determined by automatic microscopy. Data are represented as mean+/−SEM. *<0.05.
FIG. 14. Effects of GR regulated soluble factors on osteoblast cell differentiation. Primary wild type osteoblasts were differentiated with or without Dex. At day 10 the specific ALP activity was determined and is depicted as ALP positive cells in percent in the absence or presence of NGF (A), IL-6 (B), EGF (C) and LIF (D). Data are represented as mean+/−SEM. * p<0.05; ** p<0.01.
Primary osteoblasts were isolated from either embryonic (E18.5) or neonatal calvaria by sequential digestions and cultivated as previously described (David et al., 2005). c-Jun-deficient cells were obtained from previously described mice (Schreiber et al., 1999). […] Differentiation of osteoblasts was determined by staining for ALP activity (ALP kit, Sigma or ELF® Phosphatase Detection Kit, ATCC) or by Alizarin Red staining (Sigma) at indicated time points. Apoptosis was detected by In situ Cell Death Detection Kit (Roche), and proliferation with fluorescent immunohistochemistry using mouse anti-Ki-67 (BD Pharmingen™) and Alexa Fluor® 594-labeled donkey anti-mouse IgG (Molecular Probes™). Quantification of the stainings and cell numbers according to DAPI labeling was performed by automated microscopy using Cellomics ArrayScan and software HCS Scan® (Thermo-Fischer). The factors EGF (Calbiochem), NGF2 (Sigma), IL-6 (ImmunoTools), IL-11 (Antigenix America, Inc.) and LIF (Chemicon) were added to the culture after differentiation at concentrations of 0.8, 4 and 20 ng/ml. qRT-PCR was performed as previously described (Tuckermann et al., 2007). Primer information can be provided upon request.

[4] = tested on: Female 9 week old FVB/N mice; assay: LIF administration to prednisolone treated mice, MicroCT analysis; type: in vivo, mouse
Protocol: FIG. 23. LIF treatment elevates bone density of prednisolone treated mice. Female 9 week old FVB/N mice were treated with control pellets (sham), prednisolone (Pred) releasing pellets (12 mg/kg/day releasing rate) and were treated one day later with PBS and LIF i.p. injections twice a day (0.2 mg/kg/day) until 15 days. Mice were sacrificed on day 16. MicroCT Analysis was performed and representative longitudinal sections shown in (A), Bone Volume/Tissue volume determined (B) and trabecular thickness and trabecular numbers calculated (C, D). n=6, * p<0.05, ** p<0.01, *** p<0.001
After 15 days the bone mineral density was determined by micro computertomography (FIG. 23).
Female 9 week old FVB/N mice were treated with control pellets (sham), prednisolone (Pred) releasing pellets (12 mg/kg/day releasing rate) and were treated one day later with PBS and LIF i.p. injections twice a day (0.2 mg/kg/day) until 15 days. Mice were sacrificed on day 16.

human cells = details: cited from earlier work
bone tissue of mice = assay: Osteoblast proliferation and apoptosis in vivo (BrdU, TUNEL); set-up: species or system mouse; details: prednisolone for one day
Protocol: FIG. 10. Proliferation and apoptosis in bones of prednisolone treated GR^Runx2Cre animals. (A, B). GR^flox and GR^Runx2Cre mice were treated with prednisolone for one day pulsed with BrdU for 4 hours and histological sections of long bones stained with anti-BrdU antibody (A) and with a TUNEL kit (B). BM: bone marrow; Scale bar: 20 μm.
Mice were treated with prednisolone (12.5 mg/kg/d) for one day and they got pulsed with 10 μg/g body weight BrdU 4 hours before dissection. Decalcified deparaffined femur sections were stained with the In situ Cell Death Detection Kit (Roche) for apoptosis and rat anti-BrdU (Abcam) following Peroxidase coupled anti-rat IgG for proliferation.

[5] = tested on: osteoblastogenesis in bone marrow / long bones of mice; assay: CFU-OBs and Col1a1 mRNA in long bones after three days of prednisolone; type: in vivo, mouse; details: for Col1a1 expression in long bones / osteoblastogenesis, colony forming units of osteoblasts (CFU-OBs): three days of prednisolone
Source text: (G) Number of CFU-OBs within the bone marrow/leg (femur and tibia) and (H) qRT-PCR-determined Col1a1 mRNA expression in long bones of mice treated with placebo or prednisolone for three days.
(F) Number of CFU-OBs within the bone marrow/leg and (G) qRT-PCR-determined Col1a1 mRNA expression in long bones of mice treated with placebo or prednisolone for three days.
CFU-OBs per leg were obtained by counting Alizarin Red-positive colonies of 2×10^6 bone marrow cells (excluding erythrocytes) plated per 6-well after 20 days under osteogenic conditions.

[6] = wild type (GR^flox) mice, prednisolone for two weeks

Protocol for 10-week-old female mice: Vertebral bodies of 10-week-old female GR^Runx2cre and GR^flox mice treated with placebo (Plac) or prednisolone (Pred; 12.5 mg/kg/day) for two weeks were analyzed by (A) von Kossa staining of undecalcified sections and (B) histomorphometry of BV/TV and TbTh. (C) DPD/Cr levels in urine of mice after prednisolone treatment at indicated times. (D) Histomorphometry of osteoblast number/bone perimeter (NOb/BPm), osteocyte number/bone area (NOy/BAR) and osteoclast number/bone perimeter (NOc/BPm). (E) Fluorescent micrographs of dual calcein labeling and (F) its quantitative analysis of bone formation rate/bone surface (BFR/BS). (G) Number of CFU-OBs within the bone marrow/leg (femur and tibia) and (H) qRT-PCR-determined Col1a1 mRNA expression in long bones of mice treated with placebo or prednisolone for three days. (I) Fluorescent micrographs of dual calcein labeling and (J) its quantitative analysis of BFR/BS in tibiae of GR^LysMcre and corresponding GR^flox control mice.
(A) Fluorescent micrographs of dual calcein labeling and (B) its quantitative analysis of BFR/BS in vertebrae of GR^dim and wild type (wt) mice treated as described in FIG. 2. (C) Vertebral bodies were analyzed by von Kossa staining of undecalcified sections. (D) Histomorphometry of BV/TV, TbTh, (E) NOb/BPm, NOy/BAR and NOc/BPm. (F) Number of CFU-OBs within the bone marrow/leg and (G) qRT-PCR-determined Col1a1 mRNA expression in long bones of mice treated with placebo or prednisolone for three days. (H) DPD/Cr levels in urine of mice after prednisolone treatment at indicated times.
All animal experiments were performed in accordance with accepted standards of animal welfare and with permission of the responsible authorities of Baden-Württemberg and Thüringen. […] To induce osteoporosis, prednisolone (or a placebo control) was applied for 14 days by subcutaneous implantation of slow-release pellets resulting in a calculated dose of 12.5 mg/kg/d (15 mg; 60-day release; Innovative Research of America, Inc.) in 10-week-old female mice.
Parameters of static and dynamic histomorphometry were quantified on toluidine blue-stained undecalcified proximal tibia and lumbar vertebral sections as described previously (Amling et al., 1999) using the Osteo-histomorphometry system (Osteometrics, Atlanta, Ga., USA) (Parfitt et al., 1987). Osteocytes were assessed at the cortical bone by OsteoMeasure™ software. To assess dynamic histomorphometric indices, mice were given two injections of calcein, nine and two days before dissection. Fluorochrome measurements for the determination of the bone formation rate were performed on two nonconsecutive 12-μm-thick sections for each animal. Statistical differences between the groups (n=5-6) were assessed by the Student's t-test.

CNCC(Cl)c1ccc(OC(C)=O)cc1.Cl (stereo not drawn) [Compound A]
proinflammatory gene expression [1]: inhibits proinflammatory gene expression | IL-11 signaling (IL-11 signaling): not IL-11 signaling | result in the method for identifying agents [2]: tested as a hit | osteoblast markers in vivo (DBA/1 mice): does not affect | osteoblast differentiation and osteoblast markers in vitro (primary osteoblasts): does not affect | AP-1 dependent gene MMP-13 (MMP-13): repressed

LIF: Leukaemia inhibitory factor, secreted polyfunctional cytokine; recombinant protein
rescue of Dex-impaired osteoblast differentiation (ALP positive cells) [3]: potently antagonized; also recorded: ameliorated the inhibition of osteoblast differentiation | rescue of Dex-reduced osteoblast cell numbers [3]: not rescuing | trabecular number ([4]; LIF i.p. 0.2 mg/kg/day, 15 days): strong increase | bone mass (bone volume/tissue volume) ([4]; sham treated and prednisolone treated animals, LIF i.p. 0.2 mg/kg/day, 15 days): increases bone mass

epidermal growth factor: epidermal growth factor, evokes HB-EGF signaling in osteoblasts (NSDSECPLSHDGYCLHDGVCMYIEALDKYACNCVVGYIGERCQYRDLKWWELR; not fully specified; Epidermal growth factor; UniProt P01133 971-1023, looked up)
rescue of Dex-impaired osteoblast differentiation (ALP positive cells) [3]: did not prevent the inhibition of differentiation | rescue of Dex-reduced osteoblast cell numbers [3]: counteracted the reduction in cell number

human LIF: human mature LIF polypeptide of 180 amino acid residues
activity on human and mouse cells (human cells): equally active on both human and mouse cells

IL-6: Interleukin 6 added to osteoblast cultures
rescue of Dex-reduced osteoblast cell numbers [3]: neither rescued the reduced cell numbers

C[C@]12C=CC(=O)C=C1CC[C@@H]1[C@@H]2[C@@H](O)C[C@@]2(C)[C@H]1CC[C@]2(O)C(=O)CO [prednisolone]
bone formation rate (10-week-old female mice; GR^LysMCre and wild type mice, prednisolone for two weeks): similarly reduced | numbers of osteocytes, osteoblasts and osteoblast surface (10-week-old female mice; GR^Runx2Cre mice): unaltered | bone mineral density and trabecular thickness (10-week-old female mice; GR^Runx2Cre mice, prednisolone for two weeks): not affected | bone formation, dynamic histomorphometry following dual calcein labeling (10-week-old female mice; GR^Runx2cre mice): fully protected | bone formation (10-week-old female mice; GR^dim and wild type mice): similarly repressed | bone mass and trabecular thickness of the vertebrae (10-week-old female mice; GR^dim and wild type mice): reduced to a comparable degree | osteoblast and osteocyte numbers (10-week-old female mice; GR^dim and wild type mice): strong reduction | osteoclast numbers (10-week-old female mice; GR^dim and wild type mice): not changed | resorption (DPD/Cr) (10-week-old female mice; GR^dim and wild type mice): slightly decreased | osteoclast numbers (10-week-old female mice; GR^flox and GR^Runx2Cre mice): not affected | Resorption, deoxypyridinoline (DPD/Cr) levels (10-week-old female mice; GR^flox and GR^Runx2Cre mice, urine): slightly decreased | numbers of osteocytes, osteoblasts and osteoblast surface (10-week-old female mice; GR^flox mice): decreased | unspecific toxic effects of the prednisolone dose (10-week-old female mice; mouse, in vivo): no unspecific toxic effects | reduction of osteocytes (10-week-old female mice; prednisolone treated mice): 20-35% | bone formation, dynamic histomorphometry following dual calcein labeling (10-week-old female mice; vertebrae of wild type mice): almost complete inhibition | bone mineral density in vertebral bones (10-week-old female mice; [6]): reduced | trabecular thickness (10-week-old female mice; [6]): decreased | TUNEL and BrdU pulse labeling within bone tissue (bone tissue of mice): did not alter | Col1a1 expression in long bones ([5]; GR^Runx2Cre mice): remained unchanged | osteoblastogenesis, colony forming units of osteoblasts (CFU-OBs) ([5]; GR^Runx2Cre mice): not in GR^Runx2Cre mice | Col1a1 expression ([5]; GR^dim and wild type mice): similarly reduced in both genotypes | Osteoblastogenesis in vitro (CFU-OBs) ([5]; GR^dim and wild type mice): as efficiently suppressed in GR^dim as in wild type mice | Col1a1 expression in long bones ([5]; GR^flox mice): strongly reduced | osteoblastogenesis, colony forming units of osteoblasts (CFU-OBs) ([5]; GR^flox mice): strongly impaired | trabecular thickness ([4]; prednisolone pellets 12 mg/kg/day, also in LIF treated animals): reduction of trabecular thickness
